Test results from US10800792B2, “Inhibitors of Bruton's tyrosine kinase and method of their use” (JANSSEN PHARMACEUTICA NV, priority 2015, dated 2020).

Target: unphosphorylated-BTK kinase domain (UP-BTK), GST-tagged human BTK (389-659aa) (Homo sapiens (Human), UniProt Q06187)
Test: BTK kinase Lanthascreen binding assay
Conditions: Lanthascreen tracer competition, 60 minutes incubation, pIC50 = negative log of the IC50 in molar; for IC50: read-out: BTK_I_binding pIC50 (converted)
In short: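 Measures how well compounds compete with a fluorescence-labelled tracer for binding to BTK in its unphosphorylated state. IC50 values were fitted and expressed as pIC50 (negative logarithm of the molar IC50).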

Sequence of unphosphorylated-BTK kinase domain (UP-BTK), GST-tagged human BTK (389-659aa) (Q06187 389-659): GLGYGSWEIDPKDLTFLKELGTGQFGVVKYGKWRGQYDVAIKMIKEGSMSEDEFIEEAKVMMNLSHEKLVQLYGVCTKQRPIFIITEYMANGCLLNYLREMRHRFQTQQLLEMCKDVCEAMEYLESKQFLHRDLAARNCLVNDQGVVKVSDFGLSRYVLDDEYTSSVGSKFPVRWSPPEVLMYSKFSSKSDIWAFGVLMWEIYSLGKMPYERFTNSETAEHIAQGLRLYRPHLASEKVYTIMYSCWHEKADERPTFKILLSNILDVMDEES

Structure (SMILES) | BTK_I_binding pIC50 | IC50 [nM]
C=CC(=O)N1CC[C@@H](NC(=O)c2sc3nccc4c3c2NC(=O)N4c2cnc(Oc3ccccc3)cc2C)C1 (single isomer, unassigned) [Example 663, (R)—N-(1-Acryloylpyrrolidin-3-yl)-5-(*S)-(4-methyl-6-phenoxypyridin-3-yl)-4-oxo-4,5-dihydro-3H-1-thia-3,5,8-triazaacenaphthylene-2-carboxamide] | 8.0 | –
C=CC(=O)N1CC[C@@H](NC(=O)c2sc3nccc4c3c2NC(=O)N4c2cnc(Oc3ccccc3)nc2C)C1 (single isomer, unassigned) [Example 664, (R)—N-(1-Acryloylpyrrolidin-3-yl)-5-(*S)-(4-methyl-2-phenoxypyrimidin-5-yl)-4-oxo-4,5-dihydro-3H-1-thia-3,5,8-triazaacenaphthylene-2-carboxamide] | 7.6 | –
C=CC(=O)N1CC[C@@H](NC(=O)c2sc3nccc4c3c2NC(=O)N4c2ccc(Oc3ccccc3)nc2C)C1 (single isomer, unassigned) [Example 666, (R)—N-(1-Acryloylpyrrolidin-3-yl)-5-(*R)-(2-methyl-6-phenoxypyridin-3-yl)-4-oxo-4,5-dihydro-3H-1-thia-3,5,8-triazaacenaphthylene-2-carboxamide] | 6.3 | –
C=CC(=O)N[C@H]1COC[C@H]1NC(=O)c1sc2nccc3c2c1NC(=O)N3c1cnc(Oc2ccccc2)cc1C (single isomer, unassigned) [Example 668, N-(cis-4-Acrylamidotetrahydrofuran-3-yl)-5-(*)-(4-methyl-6-phenoxypyridin-3-yl)-4-oxo-4,5-dihydro-3H-1-thia-3,5,8-triazaacenaphthylene-2-carboxamide] | – | 15.8
C=CC(=O)N1CCC[C@@H](NC(=O)c2sc3nccc4c3c2NC(=O)N4c2ccnc(-c3ccccc3)c2C)C1 (single isomer, unassigned) [Example 676, (R)—N-(1-Acryloylpiperidin-3-yl)-5-(*R)-(3-methyl-2-phenylpyridin-4-yl)-4-oxo-4,5-dihydro-3H-1-thia-3,5,8-triazaacenaphthylene-2-carboxamide] | 7.6 | –
C=CC(=O)N1CCC[C@@H](NC(=O)c2sc3nccc4c3c2NC(=O)N4c2ccc(OC3CCC3)nc2C)C1 (single isomer, unassigned) [Example 682, (R)—N-(1-Acryloylpiperidin-3-yl)-5-(*S)-(6-cyclobutoxy-2-methylpyridin-3-yl)-4-oxo-4,5-dihydro-3H-1-thia-3,5,8-triazaacenaphthylene-2-carboxamide] | 7.3 | –
Cc1cc(Oc2ccccc2)ccc1N1C(=O)Nc2c(C(=O)N[C@@H]3CCCN(C(=O)/C=C/CN4C[C@@H]5OCCO[C@@H]5C4)C3)sc3nccc1c23 (single isomer, unassigned) [Example 684, 5-(*S)-(2-Methyl-4-phenoxyphenyl)-4-oxo-N—((R)-1-((E)-4-((4aR,7aS)-tetrahydro-2H-[1,4]dioxino[2,3-c]pyrrol-6(3H)-yl)but-2-enoyl)piperidin-3-yl)-4,5-dihydro-3H-1-thia-3,5,8-triazaacenaphthylene-2-carboxamide] | – | 31.6
Cc1cc(Oc2ccccc2)ncc1N1C(=O)Nc2c(C(=O)N[C@@H]3CCNC3)sc3nccc1c23 (single isomer, unassigned) [Example 702, (R)-5-(*S)-(4-Methyl-6-phenoxypyridin-3-yl)-4-oxo-N-(pyrrolidin-3-yl)-4,5-dihydro-3H-1-thia-3,5,8-triazaacenaphthylene-2-carboxamide] | 6.8 | –
Cc1nc(Oc2ccccc2)ncc1N1C(=O)Nc2c(C(=O)N[C@@H]3CCNC3)sc3nccc1c23 (single isomer, unassigned) [Example 715, (R)-5-(*S)-(4-Methyl-2-phenoxypyrimidin-5-yl)-4-oxo-N-(pyrrolidin-3-yl)-4,5-dihydro-3H-1-thia-3,5,8-triazaacenaphthylene-2-carboxamide] | 6.3 | –
Cc1nc(Oc2ccccc2)ccc1N1C(=O)Nc2c(C(=O)N[C@@H]3CCNC3)sc3nccc1c23 (single isomer, unassigned) [Example 717, (R)-5-(*S)-(2-Methyl-6-phenoxypyridin-3-yl)-4-oxo-N-(pyrrolidin-3-yl)-4,5-dihydro-3H-1-thia-3,5,8-triazaacenaphthylene-2-carboxamide] | 6.4 | –
C=CC(=O)N1CC[C@@H](NC(=O)c2sc3nccc4c3c2NC(=O)N4c2cnc(Oc3ccccc3)nc2C)C1 (single isomer, unassigned) [Example 724, (R)—N-(1-Acryloylpyrrolidin-3-yl)-5-(*R)-(4-methyl-2-phenoxypyrimidin-5-yl)-4-oxo-4,5-dihydro-3H-1-thia-3,5,8-triazaacenaphthylene-2-carboxamide] | 6.1 | –
Cc1nc(Oc2ccccc2)ccc1N1C(=O)Nc2c(C(=O)N[C@@H]3CCNC3)sc3nccc1c23 (single isomer, unassigned) [Example 728, (R)-5-(*R)-(2-Methyl-6-phenoxypyridin-3-yl)-4-oxo-N-(pyrrolidin-3-yl)-4,5-dihydro-3H-1-thia-3,5,8-triazaacenaphthylene-2-carboxamide] | <6 | –
C=CC(=O)N1CCC[C@@H](NC(=O)c2sc3nccc4c3c2NC(=O)N4c2ccc(OC3CCC3)nc2C)C1 (single isomer, unassigned) [Example 736, (R)—N-(1-Acryloylpiperidin-3-yl)-5-(*R)-(6-cyclobutoxy-2-methylpyridin-3-yl)-4-oxo-4,5-dihydro-3H-1-thia-3,5,8-triazaacenaphthylene-2-carboxamide] | <6 | –
C=CC(=O)N[C@H]1COC[C@H]1NC(=O)c1sc2nccc3c2c1NC(=O)N3c1cnc(Oc2ccccc2)cc1C (single isomer, unassigned) [Example 745, N-((3*S,4*R)-4-Acrylamidotetrahydrofuran-3-yl)-5-(*S)-(4-methyl-6-phenoxypyridin-3-yl)-4-oxo-4,5-dihydro-3H-1-thia-3,5,8-triazaacenaphthylene-2-carboxamide] | – | 7.94
Cc1cc(OCC(C)C)ncc1N1C(=O)Nc2c(C(=O)N[C@@H]3CCCNC3)sc3nccc1c23 (single isomer, unassigned) [Example 759, (R)-5-(*S)-(6-Isobutoxy-4-methylpyridin-3-yl)-4-oxo-N-(piperidin-3-yl)-4,5-dihydro-3H-1-thia-3,5,8-triazaacenaphthylene-2-carboxamide] | 6.7 | –
Cc1cc(OCC(C)C)ncc1N1C(=O)Nc2c(C(=O)N[C@@H]3CCCNC3)sc3nccc1c23 (single isomer, unassigned) [Example 760, (R)-5-(*R)-(6-Isobutoxy-4-methylpyridin-3-yl)-4-oxo-N-(piperidin-3-yl)-4,5-dihydro-3H-1-thia-3,5,8-triazaacenaphthylene-2-carboxamide] | <6 | –

Now from value to compound:

BTK_I_binding pIC50 | IC50 [nM] | Structure (SMILES)
8.1 | – | C=CC(=O)N1CCC[C@@H](NC(=O)c2sc3nccc4c3c2NC(=O)N4c2cnc(Oc3ccccc3)nc2C)C1 (single isomer, unassigned) [Example 746, (R)—N-(1-Acryloylpiperidin-3-yl)-5-(*S)-(4-methyl-2-phenoxypyrimidin-5-yl)-4-oxo-4,5-dihydro-3H-1-thia-3,5,8-triazaacenaphthylene-2-carboxamide]
– | 398 | C=CC(=O)N[C@@H]1COC[C@@H]1NC(=O)c1sc2nccc3c2c1NC(=O)N3c1cnc(Oc2ccccc2)cc1C (single isomer, unassigned) [Example 752, N-((*3R,*4S)-4-Acrylamidotetrahydrofuran-3-yl)-5-(*S)-(4-methyl-6-phenoxypyridin-3-yl)-4-oxo-4,5-dihydro-3H-1-thia-3,5,8-triazaacenaphthylene-2-carboxamide]
6.2 | – | C=CC(=O)N1CCC[C@@H](NC(=O)c2sc3nccc4c3c2NC(=O)N4c2ccc(OC(C)C)nc2C)C1 (single isomer, unassigned) [Example 753, (R)—N-(1-Acryloylpiperidin-3-yl)-5-(*S)-(6-isopropoxy-2-methylpyridin-3-yl)-4-oxo-4,5-dihydro-3H-1-thia-3,5,8-triazaacenaphthylene-2-carboxamide]
<6 | – | C=CC(=O)N1CCC[C@@H](NC(=O)c2sc3nccc4c3c2NC(=O)N4c2ccc(OC(C)C)nc2C)C1 (single isomer, unassigned) [Example 757, (R)—N-(1-Acryloylpiperidin-3-yl)-5-(*R)-(6-isopropoxy-2-methylpyridin-3-yl)-4-oxo-4,5-dihydro-3H-1-thia-3,5,8-triazaacenaphthylene-2-carboxamide]
7.1 | – | Cc1cc(OC2CCCC2)ncc1N1C(=O)Nc2c(C(=O)N[C@@H]3CCCNC3)sc3nccc1c23 (single isomer, unassigned) [Example 761, (R)-5-(*S)-(6-(Cyclopentyloxy)-4-methylpyridin-3-yl)-4-oxo-N-(piperidin-3-yl)-4,5-dihydro-3H-1-thia-3,5,8-triazaacenaphthylene-2-carboxamide]
<6 | – | Cc1cc(OC2CCCC2)ncc1N1C(=O)Nc2c(C(=O)N[C@@H]3CCCNC3)sc3nccc1c23 (single isomer, unassigned) [Example 762, (R)-5-(*R)-(6-(Cyclopentyloxy)-4-methylpyridin-3-yl)-4-oxo-N-(piperidin-3-yl)-4,5-dihydro-3H-1-thia-3,5,8-triazaacenaphthylene-2-carboxamide]
8.2 | – | C=CC(=O)N1CCC[C@@H](NC(=O)c2sc3nccc4c3c2NC(=O)N4c2cnc(OC3CCCC3)cc2C)C1 (single isomer, unassigned) [Example 768, (R)—N-(1-Acryloylpiperidin-3-yl)-5-(*S)-(6-(cyclopentyloxy)-4-methylpyridin-3-yl)-4-oxo-4,5-dihydro-3H-1-thia-3,5,8-triazaacenaphthylene-2-carboxamide]
